Patent US20240350481A1, “USE OF N-MYRISTOYL TRANSFERASE (NMT) INHIBITORS IN THE TREATMENT OF CANCER, AUTOIMMUNE DISORDERS, AND INFLAMMATORY DISORDERS” (PACYLEX PHARMACEUTICALS INC., priority 2020, published 2024)
Structures can show the parent of a compound that is named as a salt. Residues, ends and D or L forms follow the SMILES beside them. *: point of attachment. Cbz = O=C(OCc1ccccc1)*

Assays:
[1] = tested on: T cells; experiment: Multiplex cytokine array, activated T cell supernatant; assay type: cell-based, human; settings: 48 h drug, then T cell activator with drug 2 more days
Procedure: (§1) Human peripheral blood mononuclear cells (PBMC) and purified T cells from healthy donors were purchased from […] Technologies (CA). Cells (7.5×10^6/ml) were cultured in the RPMI supplementing with 10% heat-inactivated fetal bovine serum (vWR), 1% penicillin/streptomycin (SigmaMillipore), 1% sodium pyruvate, and 1% non-essential amino acids (Gibco) in 24 well plates in the presence of 100 IU/ml interleukin 2 ([…] Technologies or HIV reagent program (managed by ATCC).
(§2) Then, cells were induced with T cell activator ([…]) in the presence of the drugs for 2 more days. After 4 days, the viability of treated T cells was analyzed using Flow cytometry. The supernatants for both PBMC and T cells were collected for further analysis.
The collected supernatants were analyzed for various biomarkers using multiplex cytokine array (Eve Technologies Discovery assay, Calgary, CA) either human cytokine/chemokine 71-Plex (HD71) for PBMC or human proinflammatory focused 15-Plex (HDF15) for T cells samples.

[2] = T cell viability by flow cytometry; assay type: cell-based; settings: human; for viability at 4 days, 20 nM: Drug 20 nM; for viability at 4 days, 100 nM: Drug 100 nM; for viability at 4 days, 500 nM: Drug 500 nM
Procedure: as §1, §2

[3] = tested on: Src and Lyn SFK protein levels; experiment: SFK protein levels (Western blot); assay type: cell-based; settings: BL2 cells treated with PCLX-001, 10 μM MG132 for the last 6 hrs
Procedure: Cells were harvested, washed in cold PBS, and lysed in […] SDS-RIPA buffer (50 mM Tris-HCl pH 8.0, 150 mM NaCl, 1% Igepal CA-630, 0.5% sodium deoxycholate, 2 mM MgCL2, 2 mM EDTA with 1×complete protease inhibitor; (Roche Diagnostics) by rocking for 15 min at 4° C. The lysates were centrifuged at 16,000 g for 10 min at 4° C., and the post-nuclear supernatant was collected.
Protein concentrations were determined by BCA assay (Thermo Scientific) according to manufacturer's instructions. Samples were prepared for electrophoresis by the addition of 5× loading buffer and boiled for 5 min. If not stated otherwise, […] of total protein per lane is loaded on a 12.5% acrylamide gels. After electrophoresis, gels are transferred onto […] nitrocellulose membrane (Bio-Rad) thereafter probed with antibodies as described in materials section.

[4] = Mouse IV; cited from earlier work
[5] = tested on: BCR signaling in BL2 cells; experiment: BCR signaling after anti-IgM in BL2 cells (Western blot); assay type: cell-based; settings: 0.1 or 1.0 μM, 48 hrs
Procedure: IM9, Ramos, SU-DHL-10 and COS-7 were purchased from ATCC. BL2, DOHH2, WSU-DLCL2 & BJAB were purchased from DSMZ (Germany). Ramos and BL2 were kind gifts of Drs. Jim Stone and Robert […] of University of Alberta. VDS isolation was described in Tosato G, et al. (reference 47). VDS, BJAB and SU-DHL-10 were kind gifts of Dr. Michael Gold of the University of British Columbia. HUVEC cells (pooled from up to 4 umbilical cords) were purchased from PromoCell. […] Cell lines were tested regularly for mycoplasma contamination using MycoAlert Plus Mycoplasma Detection Kit (Lonza, ME, USA). All cell lines tested negative for mycoplasma contamination. […] Please see supplementary Table 3 for cell line names, types and histology. For transfections, adherent cells COS-7 cells were transfected using X-tremeGENE9 DNA (Roche) transfection reagent according to manufacturer's instructions. For BCR activation experiments, cells were incubated with 25 μg/ml of Goat F(ab')2 anti-human IgM (or anti-human IgM (μ chain) showing identical BCR activation properties) for 2 minutes and the activation was stopped by the addition of 1 mM vanadate (Bio Basic Inc) solution in PBS. Protein concentrations were determined by BCA assay (Thermo Scientific) according to manufacturer's instructions. Samples were prepared for electrophoresis by the addition of 5× loading buffer and boiled for 5 min. […]

[6] = mouse, in vivo
Procedure: (§4) Mice were observed daily for clinical signs of toxicity and effects on body weight. After the last dose, three mice/group were euthanized and necropsied. At euthanasia, blood samples were taken for hematology analyses and to measure AST and CK activities and bilirubin and creatinine concentrations. At necropsy, samples of samples of femur, both kidneys, liver, small intestine, and injection site were taken and fixed.
(§5) The dose volume was 10 mL/kg. At the end of the two-to three-week dosing period, mice were euthanized and three/group were necropsied. Mice that died or were euthanized early for humane reasons also were necropsied. In life, mice were monitored regularly and weighed daily, and tumors were measured with digital Vernier calipers (Mitutoyo) every other day. Tumor volume was calculated as length (mm)×width (mm)2/2; length and width were the longest and shortest diameters, respectively. At euthanasia, at the end of the dosing period blood samples were taken for hematology analyses and clinical chemistry analyses that included AST and CK activities and bilirubin and creatinine concentrations (plus ALT activity and BUN concentration in the Jackson Laboratory study). At necropsy, samples of femur, both kidneys, liver, small intestine, and injection site were collected and fixed. These were subsequently processed and examined by light microscopy for histopathologic findings. Also at necropsy, the tumors were removed and divided in two. One piece was fixed in 10% neutral buffered formalin for 24 h at room temperature and embedded in paraffin; the other was snap frozen for RNA and protein analysis. Tumor growth inhibition (TGI) for all xenograft experiments was calculated following the formula:

[7] = Toxicology in DLBCL3 patient derived xenograft mice; assay type: in vivo, mouse; settings: within the first 7 days
Procedure: (§3) The dose volume was 10 mL/kg.

[8] = tested on: BL2 xenografts; experiment: BL2 xenograft, tumor growth; assay type: in vivo, mouse; settings: doxorubicin
From the text: BL2 xenograft study at Jackson Laboratory: One hundred five (105) 6 week old female NOD.CB17-Prkdc scid/J (NOD scid, Stock #001303) mice were transferred to the in vivo research laboratory in Sacramento, CA. The mice were ear notched for identification and housed in individually and positively ventilated polysulfone cages with HEPA filtered air at a density of 5 mice per cage. Initially cages were changed every two weeks. The animal room was lighted entirely with artificial fluorescent lighting, with a controlled 12 hour light/dark cycle (6 am to 6 pm light). The normal temperature and relative humidity ranges in the animal rooms were 20-26° C. and 30-70%, respectively. The animal rooms were set to have up to 15 air exchanges per hour. Filtered tap water, acidified to a pH of 2.5 to 3.0, and standard lab chow were provided ad libitum.
as §3
TGI (%)=(Vcontrol−Vtreated)/(Vcontrol−Vnitial)*100.

[9] = Toxicology in DOHH2 xenograft mice; settings: DOHH2 xenograft; Doxorubicin 3 mg/kg Once a week; normal [5-20]
Procedure: as §4, §5

[10] = tested on: DOHH2 tumors; experiment: DOHH2 xenograft, tumor growth; assay type: in vivo, mouse; settings: doxorubicin treatment
Procedure: DOHH2 xenograft study at Charles River's facility: […] On Day 1 of the study, animals were given a rehydration solution ad libitum in an effort to reduce dehydration during the dosing phase of the study. […] The dose volume was 10 mL/kg.

[11] = mouse, in vivo; remark: listed apart in the source
Procedure: Data collected were the same as in the Charles River xenograft study—clinical signs, body weight, tumor volume, blood samples from 3 mice/group for hematology and clinical chemistry (ALT, AST, BUN, creatinine, CK), and tissue samples collected and fixed from the same 3 mice. Liver, kidneys, and small intestine also were weighed.
as §3

[12] = purified T cells from healthy donors, T cells viability (#1)
[13] = purified T cells from healthy donors, T cells viability (#2)
[14] = purified T cells from healthy donors, T cells viability (#3)

## Cc1nn(C)c(C)c1CCOc1c(-c2ccc3c(c2)c(CN(C)C)nn3C)ccc(F)c1F [IMP-1088, reference compound]
[1]
  TNFa secretion: increasing the secretion
  level of IL-5, IL-10 and IL-13: significantly reduced
  level of IL-6, IL-8 and IFN-gamma: significantly reduced
[2]; [12]
  viability at 4 days, 20 nM: 9%
  viability at 4 days, 100 nM: 10%
  viability at 4 days, 500 nM: 6%
[2]; [13]
  viability at 4 days, 20 nM: 61%
  viability at 4 days, 100 nM: 59%
  viability at 4 days, 500 nM: 59%
[2]; [14]
  viability at 4 days, 20 nM: 74%
  viability at 4 days, 100 nM: 70%
  viability at 4 days, 500 nM: 70%

## CC(C)C[C@@H](C=O)NC(=O)[C@H](CC(C)C)NC(=O)[C@H](CC(C)C)NC(=O)OCc1ccccc1 [MG132] (Cbz-Leu-Leu-Leu-aldehyde)
[3]
  levels of the 4 SFK proteins (Src, Lyn, Hck, Lck): partial or complete restoration

## Cc1nn(C)c(C)c1N[S+](=O)([O-])c1c(Cl)cc(-c2ccnc(N3CCNCC3)c2)cc1Cl [PCLX-002]
[4]
  Clearance: 0.3 L/h/kg
[1]
  level of IL-5, IL-10 and IL-13: significantly reduced
  level of IL-6, IL-8 and IFN-gamma: significantly reduced
[2]; T cells viability (#1)
  viability at 4 days, 20 nM: 9%
  viability at 4 days, 100 nM: 9%
  viability at 4 days, 500 nM: 9%
[2]; T cells viability (#2)
  viability at 4 days, 20 nM: 65%
  viability at 4 days, 100 nM: 65%
  viability at 4 days, 500 nM: 65%
[2]; T cells viability (#3)
  viability at 4 days, 20 nM: 75%
  viability at 4 days, 100 nM: 75%
  viability at 4 days, 500 nM: 69%

## Cc1nc(Nc2ncc(C(=O)Nc3c(C)cccc3Cl)s2)cc(N2CCN(CCO)CC2)n1 [dasatinib]
[5]
  HGAL and Arf1 protein levels: no effect

## COc1cccc2c1C(=O)c1c(O)c3c(c(O)c1C2=O)C[C@@](O)(C(=O)CO)C[C@@H]3O[C@H]1C[C@H](N)[C@H](O)[C@H](C)O1 [doxorubicin, Doxorubicin hydrochloride, reference compound]
[6]
  reduced body weight: up to 8%
[7]
  toxicity of doxorubicin treatment: severe drug toxicity and death in the majority of tumor bearing mice
[8]
  effect on BL2 tumor growth: no effect
[9]
  MPV: 6.2 ± 0.15 fL
[10]
  TGI: 57%
[11]
  Absolute Lymphocyte cells: 2.28 ± 0.4
  Absolute Monocyte cells: 0.7 ± 0.19
  Hemoglobin: 13.6 ± 0.21 g/dL
  MCH: 13.6 ± 0.12
  ROW %: 17.03 ± 0.15%

## C=CC(=O)N1CCC[C@@H](n2nc(-c3ccc(Oc4ccccc4)cc3)c3c(N)ncnc32)C1 [ibrutinib]
[5]
  HGAL and Arf1 protein levels: no effect
